Reference: patent US20160130259A1, “SUBSTITUTED BENZOFURAN COMPOUNDS AND METHODS OF USE THEREOF FOR THE TREATMENT OF VIRAL DISEASES” (priority 2013, published 2016)

What was measured:
[1] = system: HCV replicon genotype 1b; assay: HCV replicon assay, genotype 1b (cell ELISA for NS3/4A); assay type: cell-based; conditions: Hepatitis C virus, 96 h, read-out: 1b IC50 (nM)
Protocol: (§1) Measurement of inhibition by compounds was performed using the HCV replicon system. Several different replicons encoding different HCV genotypes or mutations were used. In addition, potency measurements were made using different formats of the replicon assay, including different ways of measurements and different plating formats. See Jan M. Vrolijk et al., A replicons-based bioassay for the measurement of interferons in patients with chronic hepatitis C, 110 J. Virological Methods 201 (2003); Steven S. Carroll et al., Inhibition of Hepatitis C Virus RNA Replication by 2′-Modified Nucleoside Analogs, 278(14) J. Biological Chemistry 11979 (2003). However, the underlying principles are common to all of these determinations, and are outlined below.
(§2) Stable neomycin phosphotransferase encoding replicons-harboring cell lines were used, so all cell lines were maintained under G418 selection prior to the assay. Potency was determined using a cell ELISA assay with an antibody to the replicons encoded NS3/4a protease. See Caterina Trozzi et al., In Vitro Selection and Characterization of Hepatitis C Virus Serine Protease Variants Resistant to an Active-Site Peptide Inhibitor, 77(6) J. Virol. 3669 (2003). To initiate an assay, replicon cells were plated in the presence of a dilution series of test compound in the absence of G418. Typically, the assays were performed in a 96-well plate formate for manual operation, or a 384-well plate format for automated assay. Replicon cells and compound were incubated for 96 hours. At the end of the assay, cells were washed free of media and compound, and the cells were then lysed. RNA was quantified indirectly through detection of replicon-encoded NS3/4A protein levels, through an ELISA-based assay with an antibody specific for NS3/4A. IC50 determinations were calculated as a percentage of a DMSO control by fitting the data to a four-parameter fit function and the data obtained is provided in the table below.
(§3) Data for selected compounds of the present invention was obtained for genotypes 1a and 1b using this method and is provided in the table below: […]

[2] = system: HCV replicon genotype 1a; assay: HCV replicon assay, genotype 1a (cell ELISA for NS3/4A); assay type: cell-based; conditions: Hepatitis C virus, 96 h, read-out: 1a IC50 (nM)
Protocol: as §1, §2, §3

Compound	IC50 [1] [nM]	IC50 [2] [nM]
CNC(=O)c1c(-c2ccc(F)cc2)oc2cc(N(C)S(C)(=O)=O)c(-c3cc(-c4nc5ncccc5o4)c(=O)n(C)c3)cc12 [Compound 10, 2-(4-fluorophenyl)-N-methyl-5-(1-methyl-5-(oxazolo[4,5-b]pyridin-2-yl)-6-oxo-1,6-dihydropyridin-3-yl)-6-(N-methylmethylsulfonamido) benzofuran-3-carboxamide]	10.1	22.7
CNC(=O)c1c(-c2ccc(F)cc2)oc2cc(N(C)S(C)(=O)=O)c(-c3cc(-c4cc5c(F)cccc5[nH]4)cn(C)c3=O)cc12 [Compound 11, 5-(5-(4-fluoro-1H-indol-2-yl)-1-methyl-2-oxo-1,2-dihydropyridin-3-yl)-2-(4-fluorophenyl)-N-methyl-6-(N-methylmethylsulfonamido)benzofuran-3-carboxamide]	2.67	3.84
CNC(=O)c1c(-c2ccc(F)cc2)oc2cc(N(C)S(C)(=O)=O)c(-c3cc(-c4cc5c(C#N)cccc5[nH]4)cn(C)c3=O)cc12 [Compound 12, 5-(5-(4-cyano-1H-indol-2-yl)-1-methyl-2-oxo-1,2-dihydropyridin-3-yl)-2-(4-fluorophenyl)-N-methyl-6-(N-methylmethylsulfonamido) benzofuran-3-carboxamide]	1.67	3.28
CNC(=O)c1c(-c2ccc(F)cc2)oc2cc(N(C)S(C)(=O)=O)c(-c3cc(-c4cc5c(F)cccc5[nH]4)c(=O)n(C)n3)cc12 [Compound 13, 5-(5-(4-fluoro-1H-indol-2-yl)-1-methyl-6-oxo-1,6-dihydropyridazin-3-yl)-2-(4-fluorophenyl)-N-methyl-6-(N-methylmethylsulfonamido)benzofuran-3-carboxamide]	6.59	4.52
CNC(=O)c1c(-c2ccc(F)cc2)oc2cc(N(C)S(C)(=O)=O)c(-c3cc(-c4cc5c(C#N)cccc5[nH]4)c(=O)n(C)n3)cc12 [Compound 14, 5-(5-(4-cyano-1H-indol-2-yl)-1-methyl-6-oxo-1,6-dihydropyridazin-3-yl)-2-(4-fluorophenyl)-N-methyl-6-(N-methylmethylsulfonamido) benzofuran-3-carboxamide]	4.43	3.55
CNC(=O)c1c(-c2ccc(F)cc2)oc2cc(N(C)S(C)(=O)=O)c(-c3cc(-c4cc5ncccc5[nH]4)c(=O)n(C)n3)cc12 [Compound 15, 2-(4-fluorophenyl)-N-methyl-5-(1-methyl-6-oxo-5-(1H-pyrrolo[3,2-b]pyridin-2-yl)-1,6-dihydropyridazin-3-yl)-6-(N-methylmethylsulfonamido) benzofuran-3-carboxamide]	81.1	238
CNC(=O)c1c(-c2ccc(F)cc2)oc2cc(N(C)S(C)(=O)=O)c(-c3cc(-c4cc5c(F)cccc5n4C)c(=O)n(C)n3)cc12 [Compound 16, 5-(5-(4-fluoro-1-methyl-1H-indol-2-yl)-1-methyl-6-oxo-1,6-dihydropyridazin-3-yl)-2-(4-fluorophenyl)-N-methyl-6-(N-methylmethylsulfonamido)benzofuran-3-carboxamide]	1.38	1.38
CNC(=O)c1c(-c2ccc(F)cc2)oc2cc(N(C)S(C)(=O)=O)c(-c3cc(-c4cc5c(C#N)cccc5n4C)c(=O)n(C)n3)cc12 [Compound 17, 5-(5-(4-cyano-1-methyl-1H-indol-2-yl)-1-methyl-6-oxo-1,6-dihydropyridazin-3-yl)-2-(4-fluorophenyl)-N-methyl-6-(N-methylmethylsulfonamido) benzofuran-3-carboxamide]	4.26	2.29
CNC(=O)c1c(-c2ccc(F)cc2)oc2cc(N(C)S(C)(=O)=O)c(-c3cc(-c4cc5c(C#N)cccc5n4CCOC)c(=O)n(C)n3)cc12 [Compound 18, 5-(5-(4-cyano-1-(2-methoxyethyl)-1H-indol-2-yl)-1-methyl-6-oxo-1,6-dihydropyridazin-3-yl)-2-(4-fluorophenyl)-N-methyl-6-(N-methylmethylsulfonamido)benzofuran-3-carboxamide]	5.02	3.15
CNC(=O)c1c(-c2ccc(F)cc2)oc2cc(N(C)S(C)(=O)=O)c(-c3cc(-c4cc5c(F)cccc5[nH]4)nn(C)c3=O)cc12 [Compound 19, 5-(6-(4-fluoro-1H-indol-2-yl)-2-methyl-3-oxo-2,3-dihydropyridazin-4-yl)-2-(4-fluorophenyl)-N-methyl-6-(N-methylmethylsulfonamido)benzofuran-3-carboxamide]	3.07	2.48
CNC(=O)c1c(-c2ccc(F)cc2)oc2cc(N(C)S(C)(=O)=O)c(-c3cn(C)c(=O)c(-c4cc5c(F)cccc5[nH]4)n3)cc12 [Compound 20, 5-(6-(4-fluoro-1H-indol-2-yl)-4-methyl-5-oxo-4,5-dihydropyrazin-2-yl)-2-(4-fluorophenyl)-N-methyl-6-(N-methylmethylsulfonamido)benzofuran-3-carboxamide]	5.91	2.9
CNC(=O)c1c(-c2ccc(F)cc2)oc2cc(N(C)S(C)(=O)=O)c(-c3cn(C)c(=O)c(-c4cc5c(F)cccc5n4C)n3)cc12 [Compound 21, 5-(6-(4-fluoro-1-methyl-1H-indol-2-yl)-4-methyl-5-oxo-4,5-dihydropyrazin-2-yl)-2-(4-fluorophenyl)-N-methyl-6-(N-methylmethylsulfonamido)benzofuran-3-carboxamide]	5.99	13.7
CNC(=O)c1c(-c2ccc(F)cc2)oc2ccc(-n3cc(C(=O)N[C@H](CO)c4ccc(F)cc4)ncc3=O)cc12 [Compound 22, (S)-N-(1-(4-fluorophenyl)-2-hydroxyethyl)-4-(2-(4-fluorophenyl)-3-(methylcarbamoyl)benzofuran-5-yl)-5-oxo-4,5-dihydropyrazine-2-carboxamide]	193	354
CNC(=O)c1c(-c2ccc(F)cc2)oc2ccc(-n3cc(C(=O)NCc4ccc(F)cn4)ncc3=O)cc12 [Compound 23, 4-(2-(4-fluorophenyl)-3-(methylcarbamoyl)benzofuran-5-yl)-N-((5-fluoropyridin-2-yl)methyl)-5-oxo-4,5-dihydropyrazine-2-carboxamide]	213	492
CNC(=O)c1c(-c2ccc(F)cc2)oc2ccc(-n3cc(C(=O)NC4(c5ccc(F)cc5)CC4)ncc3=O)cc12 [Compound 24, 4-(2-(4-fluorophenyl)-3-(methylcarbamoyl)benzofuran-5-yl)-N-(1-(4-fluorophenyl)cyclopropyl)-5-oxo-4,5-dihydropyrdzine-2-carboxamide]	35.5	80.8
CNC(=O)c1c(-c2ccc(F)cc2)oc2ccc(-n3cc(C(=O)NC4(c5ccc6cnccc6n5)CC4)ncc3=O)cc12 [Compound 25, N-(1-(1,6-naphthyridin-2-yl)cyclopropyl)-4-(2-(4-fluorophenyl)-3-(methylcarbamoyl)benzofuran-5-yl)-5-oxo-4,5-dihydropyrazine-2-carboxamide]	38.3	72.5
CNC(=O)c1c(-c2ccc(F)cc2)oc2ccc(-n3cc(C(=O)NC4(c5ccccc5)CC4)ncc3=O)cc12 [Compound 26, 4-(2-(4-fluorophenyl)-3-(methylcarbamoyl)benzofuran-5-yl)-5-oxo-N-(1-phenylcyclopropyl)-4,5-dihydropyrazine-2-carboxamide]	29.7	129
CNC(=O)c1c(-c2ccc(F)cc2)oc2cc(N(C)S(C)(=O)=O)c(-c3cc(C(=O)N[C@H](C)c4ccc(F)cc4)c(=O)n(C)c3)cc12 [Compound 27, (R)-5-(2-(4-fluorophenyl)-3-(methylcarbamoyl)-6-(N-methylmethylsulfonamido)benzoturan-5-yl)-N-(1-(4-fluorophenyl)ethyl)-1-methyl-2-oxo-1,2-dihydropyridine-3-carboxamide]	4.47	6.87
CNC(=O)c1c(-c2ccc(F)cc2)oc2cc(N(C)S(C)(=O)=O)c(-c3cnc(=O)n(-c4ccc5ccccc5c4)c3)cc12 [Compound 28, 2-(4-fluorophenyl)-N-methyl-6-(N-methylmethylsulfonamido)-5-(1-(naphthalen-2-yl)-2-oxo-1,2-dihydropyrimidin-5-yl)benzofuran-3-carboxamide]	18	116
CNC(=O)c1c(-c2ccc(F)cc2)oc2cc(N(C)S(C)(=O)=O)c(-c3ccc(=O)n(-c4ccc(F)cc4)c3)cc12 [Compound 29, 2-(4-fluorophenyl)-5-(1-(4-fluorophenyl)-6-oxo-1,6-dihydropyridin-3-yl)-N-methyl-6-(N-methylmethylsulfonamido) benzofuran-3-carboxamide]	31.8	110
